Source: ChEMBL document CHEMBL1201862, “PubChem BioAssay data set” (2004)
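Briefly, cells in 96-well plates were exposed to five compound concentrations for 48 h, and endpoints were estimated by linear interpolation. GI50: concentration for 50% inhibition of growth.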 Active and inactive are the calls of the source. Cut-off read from the data, not from the text of the source: active = GI50 up to about 1.1 µM and inactive = higher.

What was measured:
Assay in all cases: NCI anticancer screen, dose series, 48 h
A498 = test system: A498
SW-620 = test system: SW-620
UACC-257 = test system: UACC-257
NCI-H460 = test system: NCI-H460
EKVX = test system: EKVX
A549 = test system: A549
KM12 = test system: KM12
U-251 = test system: U-251
HCC 2998 = test system: HCC 2998
SK-MEL-5 = test system: SK-MEL-5
OVCAR-8 = test system: OVCAR-8
SNB-78 = test system: SNB-78
SF-268 = test system: SF-268
IGROV-1 = test system: IGROV-1
SK-MEL-2 = test system: SK-MEL-2
HCT-116 = test system: HCT-116

Measured: GI50

Cc1nc(-n2nc(-c3ccccc3)cc2-c2ccccc2)sc1C(=O)/C=C/c1ccc(Cl)cc1
inactive: A498 23.2 µM | SW-620 21.5 µM | UACC-257 20.1 µM | NCI-H460 25.2 µM | EKVX 13.4 µM | A549 19.5 µM | KM12 11.7 µM | U-251 15.8 µM | HCC 2998 16.4 µM | SK-MEL-5 13.2 µM | OVCAR-8 24.8 µM | SNB-78 46 µM | SF-268 29 µM | IGROV-1 27.7 µM | SK-MEL-2 19.6 µM

CCCCCC1CC=CC(NC(=O)OCc2ccccc2)C1/C=C/CCCC1OCCO1 (stereo not given)
inactive: A498 17.7 µM | SW-620 > 100 µM | HCT-116 35.8 µM | UACC-257 50.7 µM | NCI-H460 51.6 µM | EKVX 96.6 µM | A549 23.3 µM | KM12 48 µM | U-251 73.5 µM | HCC 2998 78.3 µM | SK-MEL-5 17.9 µM | OVCAR-8 73.6 µM | SNB-78 > 100 µM | SF-268 > 42.8 µM | IGROV-1 > 100 µM | SK-MEL-2 35.2 µM

[N-]=[N+]=NC(c1cn(C2CC(O)C(CO)O2)c(=O)[nH]c1=O)C(I)I (stereo not given)
inactive: A498 > 100 µM | SW-620 > 100 µM | HCT-116 > 100 µM | UACC-257 > 100 µM | NCI-H460 > 100 µM | EKVX > 100 µM | A549 > 100 µM | KM12 > 100 µM | U-251 > 100 µM | HCC 2998 > 100 µM | SK-MEL-5 > 100 µM | OVCAR-8 > 100 µM | SNB-78 > 100 µM | SF-268 56.1 µM | IGROV-1 87.7 µM | SK-MEL-2 > 100 µM

Cn1ncc(=S)[nH]c1=S
inactive: A498 > 100 µM | SW-620 > 100 µM | HCT-116 > 100 µM | NCI-H460 > 100 µM | EKVX > 100 µM | A549 > 100 µM | U-251 > 100 µM | OVCAR-8 > 100 µM | SNB-78 > 100 µM | SF-268 > 100 µM | IGROV-1 > 100 µM | SK-MEL-2 > 100 µM

CCCCCn1cnc2c1S(=O)(=O)N(C)C(NC(=O)c1ccccc1)=N2
inactive: A498 > 100 µM | SW-620 > 100 µM | HCT-116 > 100 µM | UACC-257 > 100 µM | NCI-H460 > 100 µM | EKVX > 100 µM | A549 > 100 µM | KM12 > 100 µM | U-251 > 100 µM | HCC 2998 > 100 µM | SK-MEL-5 > 100 µM | OVCAR-8 > 100 µM | SNB-78 > 100 µM | SF-268 > 100 µM | IGROV-1 > 100 µM | SK-MEL-2 > 100 µM

CN(C)C(=N)NC(N)=S
inactive: A498 > 100 µM | SW-620 > 100 µM | HCT-116 > 100 µM | UACC-257 > 100 µM | NCI-H460 > 100 µM | EKVX > 100 µM | A549 > 100 µM | KM12 > 100 µM | U-251 > 100 µM | HCC 2998 > 100 µM | OVCAR-8 > 100 µM | SNB-78 > 100 µM | SF-268 > 100 µM | IGROV-1 > 100 µM

CCOc1ccccc1NC(=O)CCc1n[nH]c(=S)o1
inactive: SW-620 > 100 µM | HCT-116 > 100 µM | UACC-257 > 100 µM | EKVX > 100 µM | A549 > 100 µM | KM12 > 100 µM | U-251 > 100 µM | SK-MEL-5 > 100 µM | SNB-78 > 100 µM | SF-268 > 100 µM | IGROV-1 > 10 µM | SK-MEL-2 > 100 µM

Cc1cccc(-c2nnc(S)[nH]2)c1
inactive: A498 > 100 µM | SW-620 > 100 µM | HCT-116 > 100 µM | UACC-257 > 100 µM | NCI-H460 > 100 µM | EKVX > 100 µM | A549 > 100 µM | KM12 > 100 µM | U-251 > 100 µM | HCC 2998 > 100 µM | SK-MEL-5 > 100 µM | OVCAR-8 > 100 µM | SNB-78 > 100 µM | SF-268 > 100 µM | IGROV-1 > 100 µM | SK-MEL-2 > 100 µM

Nc1nc(SCc2ccc([N+](=O)[O-])cc2)nc2c1ncn2C1OC(CO)C(O)C1O (stereo not given)
inactive: A498 > 100 µM | SW-620 > 100 µM | HCT-116 > 100 µM | UACC-257 > 100 µM | NCI-H460 > 100 µM | EKVX > 100 µM | A549 > 100 µM | KM12 > 100 µM | U-251 > 100 µM | HCC 2998 > 100 µM | SK-MEL-5 > 100 µM | OVCAR-8 > 100 µM | SNB-78 > 100 µM | SF-268 > 100 µM | IGROV-1 > 100 µM

CCOC(=O)C1Oc2ccc([N+](=O)[O-])cc2C1(C)O (stereo not given)
inactive: A498 > 100 µM | SW-620 > 100 µM | UACC-257 > 100 µM | NCI-H460 > 100 µM | EKVX > 100 µM | A549 > 100 µM | KM12 > 100 µM | U-251 > 100 µM | HCC 2998 > 100 µM | SK-MEL-5 > 100 µM | OVCAR-8 > 100 µM | SNB-78 > 100 µM | SF-268 > 100 µM | IGROV-1 > 100 µM | SK-MEL-2 > 100 µM

C=CCOC1=C2CC[C@H](O)[C@@]2(C)CCC1=O
inactive: A498 > 100 µM | SW-620 > 100 µM | HCT-116 > 100 µM | UACC-257 > 100 µM | NCI-H460 > 100 µM | EKVX > 100 µM | A549 > 100 µM | KM12 > 100 µM | U-251 > 100 µM | HCC 2998 > 100 µM | SK-MEL-5 > 100 µM | OVCAR-8 > 100 µM | SNB-78 > 100 µM | SF-268 > 100 µM | IGROV-1 > 100 µM

Cc1noc(C)c1C1=CCCCc2ccccc21
inactive: SW-620 > 100 µM | HCT-116 > 100 µM | UACC-257 > 100 µM | NCI-H460 > 100 µM | EKVX 63.4 µM | A549 > 100 µM | KM12 > 100 µM | U-251 > 100 µM | HCC 2998 > 100 µM | SK-MEL-5 34.1 µM | OVCAR-8 > 100 µM | SNB-78 > 100 µM | SF-268 > 100 µM | IGROV-1 > 100 µM | SK-MEL-2 > 100 µM

CC1=Nn2c(nnc2-c2ccccc2Cl)NC(C)(C)C1
inactive: SW-620 6.25 µM | HCT-116 > 100 µM | NCI-H460 > 100 µM | EKVX > 100 µM | A549 > 100 µM | KM12 > 100 µM | U-251 81.7 µM | HCC 2998 > 100 µM | SK-MEL-5 > 100 µM | OVCAR-8 > 100 µM | SNB-78 > 100 µM | SF-268 > 100 µM | IGROV-1 > 100 µM | SK-MEL-2 > 100 µM

C=CC/C=C/C/C=C/CCCCCCCc1cccc(O)c1C(=O)O
inactive: SW-620 45.9 µM | HCT-116 > 100 µM | UACC-257 73.3 µM | NCI-H460 36.1 µM | EKVX 49 µM | A549 33 µM | KM12 64 µM | U-251 19.7 µM | HCC 2998 58.7 µM | OVCAR-8 > 100 µM | SNB-78 > 100 µM | SF-268 24.3 µM | IGROV-1 33.6 µM | SK-MEL-2 49 µM
